Experimental data reported in patent publication US4648996A, “Phenyl substituted-2,4,6,8-nonatetraenoic acid” (Hoffmann-La Roche Inc., priority 1985, dated 1987).

Columns and labels:
[1] = system: MBSA delayed hypersensitivity in mice; assay: Delayed hypersensitivity to methylated bovine serum albumin (MBSA); format: in vivo, Male and female MFI mice substrain E33; details: for % increase paw volume / % reduction (cf. arachis oil control): 10 doses
Procedure: Male and female MFI mice substrain E33. Initial weight approximately 25 gm.
Dosing with vehicle and retinoid commenced on day 0 and finished on day 9.
Each group consisted of 4 male and 6 female mice (separately caged). Drugs were dosed orally at a dose volume of 10 ml.kg^-1 (10 doses).

[2] = system: adjuvant arthritis in the rat; assay: Developing adjuvant arthritis in the rat; format: in vivo, AHH/R Female rats (PVG derived); details: for Joint Mobility (% INC) / Lesion Score (% RDN): day 15; for % reduction of paw swelling, Primary (right): days 0-4; for % reduction of paw swelling, Secondary (left) / % reduction of paw swelling, Secondary (right): days 8-15
Procedure: AHH/R Female rats (PVG derived with an initial weight range of 110 to 140 g. were used.
Adjuvant for injection. An homogenized suspension of heat killed M tuberculosis (Human strains C, DT and PN), 5 mg.Ml^-1 in liquid paraffin was prepared.
Rats were randomly split into groups of five and adjuvant arthritis was induced by the sub-plantar injection of 0.1 ml of adjuvant suspension into the right hind paw of each rat. Test compounds were administered by intubation each morning commencing the day of adjuvant injection. Two groups of control rats were dosed with the vehicle as was a group of three normal rats included for comparative purposes. Dosing was carried out daily until the end of the test on day 15 except for the first weekend (days 5 & 6). Treatment groups are shown in Table III and include etretinate as standard retinoid.
Measurements of right hind paw volume were made initially and on days 2 and 4 after and adjufant injection (primary phase). Right and left hind paw volume were then measured, on day 8 and every two or three days until the end of the experiment on day 15 (secondary phase). At this time the mobility of each ankle joint and the incidence and severity of secondary lesions on nose, ears, forepaws, left hind paw and tail were also assessed in terms of degrees of flexion possible and by using an arbitrary scoring system, respectively.
The time course curves for the injected paws were integrated from days 0 to 4 to reflect primary swelling and from days 8 to 15 (secondary swelling). The secondary swelling in the non-injected paw was integrated similarly from days 8 to 15. Calculations were carried out using a specific computer program which computed mean ± se for each integrated area. The significance of differences from controls was determined by Student's t test (2 tailed) and percentage reductions from control areas were calculated. Percentage improvements in joint mobility and percentage reductions in lesion score were also determined. In the latter case the Wilcoxon rank sum test (2 tailed) was used to express the difference from the control score using raw data. Mean body weight change in each group was recorded.

[3] = system: type II collagen arthritis in rats; assay: Established type II collagen arthritis; format: in vivo, Male and female Alderley Park Strain 1 rats; details: for Paw Vol / wt / GAG (urine glycosaminoglycans): 100 mg.kg^-1 p.o.
Procedure: Male and female Alderley Park Strain 1 rats.
Type 2 collagen (prepared from bovine nasal septum cartilage), Freunds incomplete adjuvant (Difco).
Rats were sensitized to type 2 collagen by injecting them intradermally with 1 ml. of a water in oil emulsion consisting of equal parts of a 1 mg.ml^-1 solution of type 2 collagen in 0.45M NaCl, 0.02M Tris, pH 7.4 and Freunds incomplete adjuvant. Rats developing arthritis were allocated on day 15 post sensitization to a control arachis oil treated group (6 male, 4 female) or to the Compound A treated group (6 male, 5 female). Hind paw volume measurements were taken to ensure even distribution of rats between groups. An overnight collection of urine was made on days 15/16 and dosing commenced on day 16. These urine samples were analyzed for glycosaminoglycans (GAG). Compound A was dosed at 100 mg.kg^-1 p.o. On days 19/20 a second overnight collection of urine was made. These urine samples were analyzed for glycosaminoglycans (GAG). On day 20 a second hind paw measurement was taken. Rats were then anaesthetised with sodium pentobarbitone, bled, killed and X-rays taken of hind and forepaws. Rats were dosed on days 16-19 inclusive (4 doses).

[4] = system: impregnated sponge granuloma in the rat; assay: Impregnated sponge granuloma test in the rat; format: in vivo, AHH/R female rats (PVG derived)
Procedure: AHH/R female rats (PVG derived) with an initial weight range of 120-140 g. were used.
Sponge preparation. Pellets (6.5 mm diameter) were punched from cellulose sponge cloth ("Wettex") and 0.1 ml. of a suspension containing 0.5 mg.ml^-1 of heat killed M. tuberculosis (human strains C, DT and PN) in sterile saline was applied to each pellet. The pellets were dried, weighed and autoclaved.
Rats were randomly divided into groups of five and daily dosing with test compounds was commenced. After the fifth dose the rats were anaesthetised with Sagatal (45 mg.kg^-1 i.p.) the backs were shaved and two pellets were implanted subcutaneously (one each side) into each rat through a small dorsal midline incision. The incision was closed and the rats allowed to recover from the anaesthetic.
Seven days after implantation the rats were killed and the pellets were removed, dissected free of extraneous tissue and weighed. Each pellet was then placed in a 4 ml aliquot of distilled water, chopped with fine scissors and sonicated. After centrifugation the Na^+ and K^+ content of the supernatant was determined by flame photometry. In addition the adrenal and thumus glands from each rat were dissected out and weighed and the lower hind limbs were removed for measurement of tibial bone breaking strain. Body weights were also recorded throughout the test period.
The mean ± SE for each of the parameters was calculated and differences from the control values were determined by Student's t test (2-tailed). Percentage reductions of granuloma weight, Na^+ and K^+ content and percentage changes of adrenal and thymus, weight and tibial breaking strain were determined.

SMILES: CCCCCCCCCOc1ccccc1/C=C/C(C)=C/C=C/C(C)=C/C(=O)O [Compound A, All(E)-9-[2(nonyloxy)phenyl]-3,7-dimethyl-2,4,6,8-nonatetraenoic acid]
- % increase paw volume ([1]; 10 mg.kg^-1 oral): 102 ± 12%
- % reduction (cf. arachis oil control) ([1]; 10 mg.kg^-1 oral): 6%
- Mean body weight change ([1]; 10 mg.kg^-1 oral, female (F)): -0.2 g
- Mean body weight change ([1]; 10 mg.kg^-1 oral, male (M)): 3.3 g
- % increase paw volume ([1]; 30 mg.kg^-1 oral): 50 ± 7%
- % reduction (cf. arachis oil control) ([1]; 30 mg.kg^-1 oral): 54%
- Mean body weight change ([1]; 30 mg.kg^-1 oral, female (F)): 0.5 g
- Mean body weight change ([1]; 30 mg.kg^-1 oral, male (M)): 2.8 g
- % increase paw volume ([1]; 100 mg.kg^-1 oral): 40 ± 5%
- % reduction (cf. arachis oil control) ([1]; 100 mg.kg^-1 oral): 63%
- Mean body weight change ([1]; 100 mg.kg^-1 oral, female (F)): -0.2 g
- Mean body weight change ([1]; 100 mg.kg^-1 oral, male (M)): 3.3 g
- Joint Mobility (% INC) ([2]; 15 mg.kg^-1 p.o.): 66%
- Lesion Score (% RDN) ([2]; 15 mg.kg^-1 p.o.): 72%
- % reduction of paw swelling, Primary (right) ([2]; 15 mg.kg^-1 p.o.): -6%
- % reduction of paw swelling, Secondary (left) ([2]; 15 mg.kg^-1 p.o.): 94%
- % reduction of paw swelling, Secondary (right) ([2]; 15 mg.kg^-1 p.o.): 30%
- Joint Mobility (% INC) ([2]; 45 mg.kg^-1 p.o.): 66%
- Lesion Score (% RDN) ([2]; 45 mg.kg^-1 p.o.): 65%
- % reduction of paw swelling, Primary (right) ([2]; 45 mg.kg^-1 p.o.): 16%
- % reduction of paw swelling, Secondary (left) ([2]; 45 mg.kg^-1 p.o.): 75%
- % reduction of paw swelling, Secondary (right) ([2]; 45 mg.kg^-1 p.o.): 51%
- Paw Vol ([3]; day 16 (start of dosing)): 2.44 ± 0.08
- wt ([3]; day 16 (start of dosing)): 247 ± 14 g
- GAG (urine glycosaminoglycans) ([3]; day 16 (urine days 15/16)): 1586 ± 307 µg
- GAG (urine glycosaminoglycans) ([3]; day 20 (urine days 19/20)): 634 ± 72 µg
- Paw Vol ([3]; day 20, after 4 doses): 2.66 ± 0.06
- wt ([3]; day 20, after 4 doses): 229 ± 10 g
- weight during treatment (in words) ([3]; male and female rats, 100 mg.kg^-1): lost weight
- % reduction of granuloma K+ ([4]; 15 mg.kg^-1 p.o.): -6.9%
- % reduction of granuloma Na+ ([4]; 15 mg.kg^-1 p.o.): 14.5%
- % reduction of granuloma Wet weight ([4]; 15 mg.kg^-1 p.o.): 15.1%
- % reduction of granuloma K+ ([4]; 45 mg.kg^-1 p.o.): 0.8%
- % reduction of granuloma Na+ ([4]; 45 mg.kg^-1 p.o.): 11%
- % reduction of granuloma Wet weight ([4]; 45 mg.kg^-1 p.o.): 10.8%
